{"source": "paper PMC8058344", "about": "“ARIH1 signaling promotes anti-tumor immunity by targeting PD-L1 for proteasomal degradation” (Nature Communications, 2021)", "key": {"CDK4": {"target": "CDK4 (Homo sapiens, UniProt P11802)", "sequence (P11802 whole entry, species assumed)": "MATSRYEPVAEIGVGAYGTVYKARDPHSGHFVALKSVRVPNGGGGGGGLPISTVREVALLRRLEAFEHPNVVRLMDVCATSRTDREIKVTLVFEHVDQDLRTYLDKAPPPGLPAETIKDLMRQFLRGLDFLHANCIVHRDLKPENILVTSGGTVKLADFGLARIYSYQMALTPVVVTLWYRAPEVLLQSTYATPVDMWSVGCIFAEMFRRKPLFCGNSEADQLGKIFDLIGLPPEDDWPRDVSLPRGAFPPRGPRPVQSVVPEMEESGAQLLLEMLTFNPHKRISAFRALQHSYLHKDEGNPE", "sequence (P30281 whole entry partner, species assumed)": "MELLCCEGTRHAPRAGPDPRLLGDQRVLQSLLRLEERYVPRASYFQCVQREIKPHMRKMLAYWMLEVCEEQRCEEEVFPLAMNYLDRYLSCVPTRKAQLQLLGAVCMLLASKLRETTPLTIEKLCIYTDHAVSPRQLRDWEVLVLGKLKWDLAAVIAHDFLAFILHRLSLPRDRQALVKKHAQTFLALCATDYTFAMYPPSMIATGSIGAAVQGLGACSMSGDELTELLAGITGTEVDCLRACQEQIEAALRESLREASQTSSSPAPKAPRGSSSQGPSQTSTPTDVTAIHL", "assay": "In vitro kinase specificity profiling", "format": "biochemical"}, "KDR(VEGFR2)": {"target": "KDR(VEGFR2) (Homo sapiens, UniProt P35968)", "sequence (P35968 20-1356, species assumed)": "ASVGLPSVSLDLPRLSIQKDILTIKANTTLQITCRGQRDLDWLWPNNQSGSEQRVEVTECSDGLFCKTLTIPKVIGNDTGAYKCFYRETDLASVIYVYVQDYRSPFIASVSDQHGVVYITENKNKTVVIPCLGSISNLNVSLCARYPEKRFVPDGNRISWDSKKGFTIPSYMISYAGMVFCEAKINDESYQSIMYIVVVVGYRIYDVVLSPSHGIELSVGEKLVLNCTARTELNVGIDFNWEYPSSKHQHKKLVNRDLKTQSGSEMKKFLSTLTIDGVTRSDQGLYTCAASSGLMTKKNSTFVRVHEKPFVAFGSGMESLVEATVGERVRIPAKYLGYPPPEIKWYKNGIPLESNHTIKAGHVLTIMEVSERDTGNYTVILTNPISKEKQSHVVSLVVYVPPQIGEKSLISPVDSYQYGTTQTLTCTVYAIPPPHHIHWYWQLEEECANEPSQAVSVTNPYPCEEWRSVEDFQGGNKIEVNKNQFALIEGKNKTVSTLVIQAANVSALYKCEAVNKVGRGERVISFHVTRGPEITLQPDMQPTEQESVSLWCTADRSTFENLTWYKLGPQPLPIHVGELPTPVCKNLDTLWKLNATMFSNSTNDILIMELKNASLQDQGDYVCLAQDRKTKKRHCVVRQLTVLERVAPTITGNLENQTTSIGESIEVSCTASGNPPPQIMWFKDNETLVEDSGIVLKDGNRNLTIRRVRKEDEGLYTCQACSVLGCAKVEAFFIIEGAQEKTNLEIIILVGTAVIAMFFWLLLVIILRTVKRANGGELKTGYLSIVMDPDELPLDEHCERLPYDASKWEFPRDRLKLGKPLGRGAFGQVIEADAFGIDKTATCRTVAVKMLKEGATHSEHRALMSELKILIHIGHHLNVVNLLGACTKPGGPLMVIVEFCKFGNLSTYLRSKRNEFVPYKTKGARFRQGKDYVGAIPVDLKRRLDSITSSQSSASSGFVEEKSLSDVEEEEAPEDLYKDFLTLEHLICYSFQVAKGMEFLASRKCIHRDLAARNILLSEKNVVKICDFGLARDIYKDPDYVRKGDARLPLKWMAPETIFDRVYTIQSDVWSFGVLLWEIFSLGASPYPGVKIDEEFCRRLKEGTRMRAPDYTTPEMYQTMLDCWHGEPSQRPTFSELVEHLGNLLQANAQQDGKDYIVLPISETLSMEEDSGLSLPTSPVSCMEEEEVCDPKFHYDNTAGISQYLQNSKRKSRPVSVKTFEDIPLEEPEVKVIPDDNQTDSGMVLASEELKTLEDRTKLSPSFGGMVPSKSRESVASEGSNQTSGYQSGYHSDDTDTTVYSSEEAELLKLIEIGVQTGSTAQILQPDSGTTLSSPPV", "assay": "In vitro kinase specificity profiling", "format": "biochemical"}, "JAK2": {"target": "JAK2 (Homo sapiens, UniProt O60674)", "sequence (O60674 whole entry)": "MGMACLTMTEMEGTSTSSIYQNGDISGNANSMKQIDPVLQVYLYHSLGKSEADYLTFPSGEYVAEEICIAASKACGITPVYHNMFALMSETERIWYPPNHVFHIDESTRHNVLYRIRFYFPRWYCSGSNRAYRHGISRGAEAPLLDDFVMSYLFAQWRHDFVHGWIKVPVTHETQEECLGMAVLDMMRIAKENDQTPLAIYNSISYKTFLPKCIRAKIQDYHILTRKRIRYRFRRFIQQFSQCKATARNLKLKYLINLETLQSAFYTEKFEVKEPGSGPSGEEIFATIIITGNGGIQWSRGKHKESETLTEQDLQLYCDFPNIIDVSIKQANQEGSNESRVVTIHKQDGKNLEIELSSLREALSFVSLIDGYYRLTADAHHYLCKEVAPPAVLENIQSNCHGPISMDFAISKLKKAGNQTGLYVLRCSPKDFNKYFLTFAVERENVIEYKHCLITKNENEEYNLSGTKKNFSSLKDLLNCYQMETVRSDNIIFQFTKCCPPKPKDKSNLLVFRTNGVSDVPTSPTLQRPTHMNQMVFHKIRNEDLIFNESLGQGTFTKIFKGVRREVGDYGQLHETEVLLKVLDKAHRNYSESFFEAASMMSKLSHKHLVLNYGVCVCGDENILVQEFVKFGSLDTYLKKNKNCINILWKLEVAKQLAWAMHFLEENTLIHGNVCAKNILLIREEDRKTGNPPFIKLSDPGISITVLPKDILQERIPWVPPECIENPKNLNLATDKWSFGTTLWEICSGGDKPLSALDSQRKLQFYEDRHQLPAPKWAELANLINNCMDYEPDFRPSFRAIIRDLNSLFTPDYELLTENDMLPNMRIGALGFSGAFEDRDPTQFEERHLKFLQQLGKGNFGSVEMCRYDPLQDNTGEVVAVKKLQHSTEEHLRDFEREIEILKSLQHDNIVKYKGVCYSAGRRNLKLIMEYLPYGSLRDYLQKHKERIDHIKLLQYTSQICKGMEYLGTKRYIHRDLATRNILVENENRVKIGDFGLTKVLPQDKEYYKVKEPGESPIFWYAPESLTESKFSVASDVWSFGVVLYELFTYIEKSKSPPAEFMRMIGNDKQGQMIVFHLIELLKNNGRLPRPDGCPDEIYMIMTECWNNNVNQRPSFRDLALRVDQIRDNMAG", "assay": "In vitro kinase specificity profiling", "format": "biochemical"}, "HER2": {"target": "HER2 (Homo sapiens, UniProt P04626)", "sequence (P04626 23-1255, species assumed)": "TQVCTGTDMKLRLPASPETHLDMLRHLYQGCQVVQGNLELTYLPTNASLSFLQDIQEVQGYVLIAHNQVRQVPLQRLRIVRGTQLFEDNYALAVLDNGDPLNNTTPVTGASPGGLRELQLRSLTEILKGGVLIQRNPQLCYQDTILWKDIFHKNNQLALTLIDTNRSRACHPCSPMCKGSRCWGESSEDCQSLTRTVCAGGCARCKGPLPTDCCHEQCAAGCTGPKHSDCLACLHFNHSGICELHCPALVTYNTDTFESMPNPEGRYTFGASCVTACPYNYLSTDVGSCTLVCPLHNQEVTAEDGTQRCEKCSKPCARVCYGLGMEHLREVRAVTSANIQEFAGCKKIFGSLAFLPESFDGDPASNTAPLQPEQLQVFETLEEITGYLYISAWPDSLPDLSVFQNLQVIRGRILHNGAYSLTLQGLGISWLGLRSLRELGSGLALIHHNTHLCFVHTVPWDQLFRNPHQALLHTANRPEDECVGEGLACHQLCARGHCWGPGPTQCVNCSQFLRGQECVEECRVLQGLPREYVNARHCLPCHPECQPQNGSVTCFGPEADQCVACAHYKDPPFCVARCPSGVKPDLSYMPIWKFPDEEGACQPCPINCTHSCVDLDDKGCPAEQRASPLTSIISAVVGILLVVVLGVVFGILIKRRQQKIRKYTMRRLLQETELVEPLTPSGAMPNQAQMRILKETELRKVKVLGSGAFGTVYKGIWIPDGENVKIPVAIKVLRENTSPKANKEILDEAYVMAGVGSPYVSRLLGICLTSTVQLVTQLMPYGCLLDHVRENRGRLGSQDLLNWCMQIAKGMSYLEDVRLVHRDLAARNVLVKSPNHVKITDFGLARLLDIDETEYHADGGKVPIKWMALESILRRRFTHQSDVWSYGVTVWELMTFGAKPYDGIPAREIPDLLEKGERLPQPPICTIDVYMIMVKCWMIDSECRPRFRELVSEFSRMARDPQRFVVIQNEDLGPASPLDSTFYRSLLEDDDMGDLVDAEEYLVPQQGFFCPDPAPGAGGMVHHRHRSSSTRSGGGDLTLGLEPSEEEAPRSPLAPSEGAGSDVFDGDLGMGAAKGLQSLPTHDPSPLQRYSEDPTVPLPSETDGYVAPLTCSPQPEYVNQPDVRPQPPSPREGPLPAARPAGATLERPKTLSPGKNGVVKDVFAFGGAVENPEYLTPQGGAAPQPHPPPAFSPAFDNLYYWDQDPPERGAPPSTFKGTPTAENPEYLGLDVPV", "assay": "In vitro kinase specificity profiling", "format": "biochemical"}, "PD-L1 Ser279": {"test_system": "PD-L1 Ser279", "assay": "Immunoblots with phospho-specific antibody against PD-L1 Ser279", "format": "cell-based, human", "conditions": "endogenous (H1975, 2 h) and recombinant (HEK293T, 10 μM, 2 h) PD-L1", "experimental": "Fig. 2 Phosphorylation on S279/S283 impairs the stability of PD-L1. a Mapping PD-L1 phosphorylation sites following ES-072 treatment. HEK293T cells were transfected with Flag-PD-L1 and treated with 10 μM ES-072 for 48 h. Immunoprecipitated PD-L1 was analyzed by mass spectrometry following phosphopeptide enrichment. Peptide ionization data corresponding to Ser279/283 are shown. b Schematic diagram of phosphorylated sites on PD-L1. Full-length PD-L1 was separated into an extracellular domain (ECD) and intracellular domain (ICD). SP: signal peptide; TM: transmembrane domain. c Schematic diagram of phosphorylated sites, S279 and S283 in the ICD of PD-L1. Positions of phosphorylated sites were labeled in red. […] Scale bars represent 50 μm. i, j Quantification of IHC analysis for p-PD-L1 (Ser279) (i) and PD-L1 (j) in h. […]\nFor western blot analysis, cells were collected and washed with PBS, then lysed in radioimmunoprecipitation assay (RIPA) buffer (1% Triton X-100, 100 mM Tris-HCl pH 8.8, 100 mM NaCl, 0.5 mM EDTA). […] The supernatant was collected and the protein concentration was measured by bicinchoninic acid reaction. […] Signals were detected using chemiluminescence reagents (#4AW001-500, 4A649 Biotech, Co.)."}}, "data": [{"smiles": "C=CC(=O)Nc1cccc(Nc2nc(Nc3ccc(N4CCN(C)CC4)nc3OC)ncc2C(F)(F)F)c1", "note": "[ES-072]", "values": [{"measurement": "IC50", "setting": "CDK4", "value": "> 10", "unit": "µM"}, {"measurement": "IC50", "setting": "KDR(VEGFR2)", "value": 5.23, "unit": "µM"}, {"measurement": "IC50", "setting": "JAK2", "value": 4.96, "unit": "µM"}, {"measurement": "IC50", "setting": "HER2", "value": 0.147, "unit": "µM"}, {"measurement": "phosphorylation of PD-L1 at Ser279", "setting": "PD-L1 Ser279", "value": "robust phosphorylation"}]}]}
